Key:
[1] = tested on: Guinea Grass; test: Test 3 postemergence weed control; type: in vivo, Panicum maximum; settings: 32 g/ha, scale 0-100
Method: Seeds of crabgrass (Digitaria spp), guinea grass (Panicum maximum) and narrowleaf panicum (P. maximum) were planted in 15-cm plastic pots. The weeds were treated postemergence with compound I, formulated in a non-phytotoxic solvent, when the plants had 3 or more leaves and had tillered. The degree of weed control was visually rated 17 days after compound application (DAT). Control ratings were based on a scale of 0 to 100 where 0 = no effect, 20 = minimal control and 100 = complete control.

[2] = tested on: Goldenrod; test: Test 4 plantation crop weeds, postemergence; type: in vivo, Solidago spp; settings: Table 6, profusely branching, scale 0-100
Text: The object of this test was to evaluate the efficacy of the compound of this invention on weeds that infest some plantation crops at different growth stages of the weeds. Asystasia intrusa, Mikania cordata, goldenrod Solidago spp, Boston fern Nephrolepis exalata, and lalang Imparata cylindrica were planted in 15-cm plastic pots. Plants were sprayed postemergence with Compound I in a non-phytotoxic solvent. The Asystasia plants ranged in growth from 4 leaves to 9 leaves and very branched, Mikania had 6 leaves to vining, the goldenrod was branching and the Boston fern was growing vigorously. The degree of weed control was visually rated 20 to 24 days after treatment (DAT). Control ratings are based on the scale of 0 to 100 where 0 = no effect, 20 = minimal control and 100 = complete control. Variations in the results of the tests could be due to the fact that the tests were run at different times of the year or due to the stage of growth of the weeds.

[3] = tested on: Narrowleaf panicum; test: Test 5 sugarcane injury and weed control, postemergence; type: in vivo, Panicum maximum; settings: scale 0-100
Method: Sugarcane (Saccharum spp.) cuttings which had been pre-sprouted were planted in 15-cm plastic pots. Narrowleaf panicum (Panicum maximum), large crabgrass (Digitaria sanguinalis), guineagrass (P. maximum) and itchgrass (Rottboellia exaltata) were seeded in individual 15-cm plastic pots.
The pots were treated postemergence when the plants had 3 to 4 leaves with 2 to 3 tillers with Compound I formulated in a non-phytotoxic carrier made up of acetone-humectant-water-surfactant (22:1:1:0.05 v/v). The degree of crop injury and weed control was visually rated 27 days after treatment (DAT). Plant injury ratings are based on the scale of 0 to 100 where 0 = no effect, 20 = minimal injury and 100 = complete control.

[4] = tested on: Kentucky bluegrass; test: Test 7 postemergence; type: in vivo, Poa pratensis; settings: scale 0-100
Method: Individual 11.4-cm plastic pots filled with planting medium were seeded with rape, wild radish (Raphanus raphanistruna). tansy mustard (Descurainia pinnata), ball mustard (Neslia paniculata), black mustard (Brassica nigra), yellow mustard, brown mustard, lentils, safflower, flax, sunflower, peanut, vetch, alfalfa, field bean, pea, violet (Viola spp), Kochia (Kochia spp), Russian thistle (Salsola spp), Matricaria spp, groundsel (Senecio spp), shepherdspurse (Capsella bursa-pastoris), nightshade (Solanum spp), sowthistle (Sonchus spp), sugar beet, wheat, "Bonanza" barley and "Morex" barley, Kentucky bluegrass (Poa pratensis), red clover (Trifolium pratense), dandelion (Taraxacum spp) and buckhorn plantain (Plantago lanceolata).
Plants were treated postemergence with the compound formulated with a non-phytotoxic carrier. Plants were visually rated 18 days after treatment (DAT). Response ratings were based on the scale of 0 to 100 where 0 = no effect, 20 = minimal injury and 100 = complete control.

[5] = tested on: Boston fern; test: Test 9 postemergence; type: in vivo, Nephrolepis exalata; settings: scale 0-100
Method: (§1) Plastic windowsill pots containing planting medium were seeded with bahiagrass, bindweed (Convolvulus spp), guinea grass (Panicum maximum), large crabgrass (Digitaria sanguinalis) and pigweed (Amaranthus spp). Individual 15-cm plastic pots contained sandbur (Cenchrus echinatus), Mikania cordata, Boston fern (Nephrolepis exalata), quackgrass (Agropyron repens), elephantgrass (Pennisetum purpureum) and sowthistle (Sonchus spp) plants.
(§2) Plants were treated postemergence with Compound I formulated in a non-phytotoxic solvent. Plants were visually rated 22 days after treatment (DAT). Injury and weed control ratings were based on the scale of 0 to 100 where 0 = no effect, 20 = minimal control and 100 = complete control.

[6] = tested on: Bindweed; test: Test 9 postemergence; type: in vivo, Convolvulus spp; settings: 16 g/ha, scale 0-100
Method: as §1, §2

[7] = tested on: Guineagrass; test: Test 11 citrus pots, preemergence to the weeds; type: in vivo, Panicum maximum; settings: Preemergence 32 g/ha; 0.25% X-77 surfactant; scale 0-100
Method: (§3) Budded citrus seedlings were planted in 30-liter plastic pots which were also seeded with sandbur, guineagrass, narrowleaf panicum, common ragweed, yellow nutsedge, purple nutsedge and bindweed. Compound I was applied preemergence and postemergence to the weeds. Treatments were sprayed to simulate the trunk-to-trunk herbicide application method used in some citrus groves. The compound was also applied postemergence to weeds grown in windowsill flats. The flats were filled with planting medium and seeded with morningglory (Ipomoea spp.). purple nutsedge (Cyperus rotundus), pigweed (Amaranthus spp.), bindweed (Convolvulus spp.), narrowleaf panicum (Panicum maximum), common ragweed (Ambrosia artemisiifolia), sandbur (Cenchrus echinatus), itchgrass (Rottboellia exaltata), johnsongrass (Sorghum halepense), guineagrass (Panicum maximum), smooth crabgrass (Digitaria ischaemum), broadleaf signalgrass (Brachiaria platyphylla), bermudagrass (Cynodon dactylon), goosegrass (Eleusine indica), large crabgrass (Digitaria sanguinalis) and yellow nutsedge (Cyperus esculentus).
(§4) The compound was formulated and sprayed with 0.25% X-77 surfactant in water. Plants were visually rated 21 and 29 days after treatment and compared with appropriate controls. Injury ratings were based on the scale of 0 to 100, where 0 indicates no effect, 20 indicates minimum effect and 100 indicates complete control. […]

[8] = tested on: Narrowleaf panicum; test: Test 11 citrus pots, preemergence to the weeds; type: in vivo, Panicum maximum; settings: Preemergence 32 g/ha; 0.25% X-77 surfactant; scale 0-100
Method: as §3, §4

[9] = tested on: Bindweed; test: Test 11 citrus pots, preemergence to the weeds; type: in vivo, Convolvulus spp.; settings: Preemergence 32 g/ha; 0.25% X-77 surfactant; scale 0-100
Method: as §3, §4

[10] = tested on: Guineagrass; test: Test 11 citrus pots, postemergence to the weeds; type: in vivo, Panicum maximum; settings: Postemergence 32 g/ha, 0.25% X-77 surfactant, scale 0-100
Method: as §3, §4

[11] = tested on: Narrowleaf panicum; test: Test 11 citrus pots, postemergence to the weeds; type: in vivo, Panicum maximum; settings: Postemergence 32 g/ha, 0.25% X-77 surfactant, scale 0-100
Method: as §3, §4

[12] = tested on: Purple nutsedge; test: Test 11 citrus pots, postemergence to the weeds; type: in vivo, Cyperus rotundus; settings: Postemergence 32 g/ha, 0.25% X-77 surfactant, scale 0-100
Method: as §3, §4

[13] = tested on: Lantana; test: Test 12 over-the-top application, postemergence; type: in vivo, Lantana camara; settings: 26 days after treatment, scale 0-100
Text: The object of this test was to evaluate the safety of sour lemon to the over-the-top application of Compound I and control of lantana (Lantana camara) and trumpetcreeper (Campsis radicans). Plants were sprayed postemergence with Compound I formulated in a non-phytotoxic solvent. Treated plants were visually rated 26 days after treatment and compared with appropriate controls. Injury ratings were based on the scale of 0 to 100, where 0 indicates no effect, 20 indicates minimal effect and 100 indicates complete control.

COC(=O)c1cccnc1S(=O)(=O)NC(=O)Nc1nc(OC)cc(OC)n1 [Compound I, 2-[[(4,6-dimethoxypyrimidin-2-yl)aminocarbonyl]aminosulfonyl]-3-pyridinecarboxylic acid, methyl ester]
Control Rating 17 DAT [1]: 70
Control Rating 20 DAT ([2]; 16 g/ha): 30
Control Rating 20 DAT ([2]; 32 g/ha): 30
Plant Injury Rating 27 DAT ([3]; 8 g/ha): 70
Plant Injury Rating 27 DAT ([3]; 16 g/ha): 100
Plant Injury Rating 27 DAT ([3]; 32 g/ha): 100
Plant Injury Rating 27 DAT ([3]; 64 g/ha): 100
Plant Injury Rating 18 DAT ([4]; 16 g/ha): 100
Plant Injury Rating 18 DAT ([4]; 32 g/ha): 100
Plant Injury Rating 22 DAT ([5]; 8 g/ha): 40
Plant Injury Rating 22 DAT ([5]; 16 g/ha): 50
Plant Injury Rating 22 DAT ([5]; 32 g/ha): 80
Plant Injury Rating 22 DAT [6]: 70
Injury ratings [7]: 100
Injury ratings [8]: 80
Injury ratings [9]: 90
Injury ratings [10]: 100
Injury ratings [11]: 90
Injury ratings [12]: 90
Injury ratings ([13]; 8 g/ha): 0
Injury ratings ([13]; 16 g/ha): 10
Injury ratings ([13]; 32 g/ha): 30

From EP0314302A2, “Herbicidal o-carbomethoxy-sulfonylureas” (E.I. DU PONT DE NEMOURS AND COMPANY, priority 1987, dated 1989)
